{"source": "ChEMBL document CHEMBL3352057", "about": "“Novel fluorinated pyrrolo[1,2-a]pyrazine-2,6-dione derivatives: synthesis and anticonvulsant evaluation in animal models of epilepsy” (Bioorg Med Chem, 2014)", "key": {"[1]": {"test_system": "Rattus norvegicus", "experiment": "Anticonvulsant activity in Sprague-Dawley rat assessed as protection against maximal electroshock-induced seizures at 30 mg/kg, ip measured after 1 hr", "assay_type": "functional, organism-based", "set-up": "dose 30 mg/kg"}, "[2]": {"test_system": "Mus musculus", "experiment": "Neurotoxicity in 44 mA current-induced seizure albino CF1 mouse model at 100 mg/kg, ip measured after 1 hr", "assay_type": "toxicity, organism-based", "set-up": "dose 100 mg/kg, route intraperitoneal", "settings": "in vivo"}, "[3]": {"test_system": "Mus musculus", "experiment": "Anticonvulsant activity in ip dosed corneal kindled albino CF1 mouse seizure model", "assay_type": "functional"}, "[4]": {"test_system": "Mus musculus", "experiment": "Anticonvulsant activity in albino CF1 mouse assessed as protection against maximal electroshock-induced seizures at 100 mg/kg, ip measured after 0.25 hr", "assay_type": "functional, organism-based", "set-up": "dose 100 mg/kg"}, "[5]": {"test_system": "Rattus norvegicus", "experiment": "Neurotoxicity in MES Sprague-Dawley rat model at 30 mg/kg, po measured after 2 hrs", "assay_type": "toxicity, organism-based", "set-up": "dose 30 mg/kg, route oral", "settings": "in vivo"}, "[6]": {"test_system": "Mus musculus", "experiment": "Neurotoxicity in 32 mA current-induced seizure albino CF1 mouse model at 100 mg/kg, ip measured after 0.5 hr", "assay_type": "toxicity, organism-based", "set-up": "dose 100 mg/kg, route intraperitoneal", "settings": "in vivo"}, "[7]": {"test_system": "Mus musculus", "experiment": "Neurotoxicity in albino CF1 mouse at 100 mg/kg, ip measured after 4 hrs", "assay_type": "toxicity, organism-based", "set-up": "dose 100 mg/kg, route intraperitoneal", "settings": "in vivo"}, "[8]": {"test_system": "Rattus norvegicus", "experiment": "Anticonvulsant activity in Sprague-Dawley rat assessed as protection against maximal electroshock-induced seizures at 30 mg/kg, po measured after 2 hrs", "assay_type": "functional, organism-based", "set-up": "dose 30 mg/kg"}, "[9]": {"test_system": "Mus musculus", "experiment": "Anticonvulsant activity in ip dosed albino CF1 mouse assessed as protection against maximal electroshock-induced seizures", "assay_type": "functional"}, "[10]": {"test_system": "Mus musculus", "experiment": "Anticonvulsant activity in albino CF1 mouse assessed as protection against iv infusion metrazol-induced seizures measured as clonus at 24 mg/kg, ip (reference value: 31.1 mg/kg)", "assay_type": "functional"}, "[11]": {"test_system": "Mus musculus", "experiment": "Anticonvulsant activity in albino CF1 mouse assessed as protection against 44 mA current-induced seizures at 100 mg/kg, ip measured after 0.5 hr", "assay_type": "functional, organism-based", "set-up": "dose 100 mg/kg"}, "[12]": {"test_system": "Mus musculus", "experiment": "Anticonvulsant activity in albino CF1 mouse assessed as protection against 44 mA current-induced seizures at 100 mg/kg, ip measured after 4 hrs", "assay_type": "functional, organism-based", "set-up": "dose 100 mg/kg"}, "[13]": {"test_system": "Mus musculus", "experiment": "Anticonvulsant activity in ip dosed albino CF1 mouse assessed as protection against subcutaneous metrazol-induced seizures", "assay_type": "functional"}, "[14]": {"experiment": "Protective index, ratio of TD50 for neurotoxicity in ip dosed albino CF1 mouse to ED50 for anticonvulsant activity in ip dosed MES albino CF1 mouse model", "assay_type": "toxicity, organism-based", "settings": "in vivo, read-out: Ratio TD50/ED50"}, "[15]": {"test_system": "Mus musculus", "experiment": "Anticonvulsant activity in albino CF1 mouse assessed as protection against iv infusion metrazol-induced seizures measured as twitch at 24 mg/kg, ip (reference value: 28.2 mg/kg)", "assay_type": "functional"}, "[16]": {"test_system": "Mus musculus", "experiment": "Anticonvulsant activity in ip dosed albino CF1 mouse assessed as protection against 6 Hz current-induced seizures measured as time to peak effect", "assay_type": "functional"}, "[17]": {"test_system": "Rattus norvegicus", "experiment": "Anticonvulsant activity in Sprague-Dawley rat assessed as protection against maximal electroshock-induced seizures at 30 mg/kg, po measured after 0.5 hr", "assay_type": "functional, organism-based", "set-up": "dose 30 mg/kg"}, "[18]": {"test_system": "Mus musculus", "experiment": "Anticonvulsant activity in albino CF1 mouse assessed as protection against 44 mA current-induced seizures at 100 mg/kg, ip measured after 1 hr", "assay_type": "functional, organism-based", "set-up": "dose 100 mg/kg"}, "[19]": {"test_system": "Mus musculus", "experiment": "Anticonvulsant activity in ip dosed albino CF1 mouse assessed as protection against 32 mA current-induced seizures", "assay_type": "functional"}, "[20]": {"test_system": "Mus musculus", "experiment": "Anticonvulsant activity in ip dosed corneal kindled albino CF1 mouse seizure model assessed as time to peak effect", "assay_type": "functional"}, "[21]": {"test_system": "Mus musculus", "experiment": "Anticonvulsant activity in albino CF1 mouse assessed as protection against maximal electroshock-induced seizures at 100 mg/kg, ip measured after 0.5 hr", "assay_type": "functional, organism-based", "set-up": "dose 100 mg/kg"}, "[22]": {"test_system": "Mus musculus", "experiment": "Neurotoxicity in 44 mA current-induced seizure albino CF1 mouse model at 100 mg/kg, ip measured after 0.25 hr", "assay_type": "toxicity, organism-based", "set-up": "dose 100 mg/kg, route intraperitoneal", "settings": "in vivo"}, "[23]": {"test_system": "Mus musculus", "experiment": "Anticonvulsant activity in albino CF1 mouse assessed as protection against iv infusion metrazol-induced seizures measured as clonus at 79 mg/kg, ip (reference value: 31.1 mg/kg)", "assay_type": "functional"}, "[24]": {"test_system": "Mus musculus", "experiment": "Anticonvulsant activity in albino CF1 mouse assessed as protection against 32 mA current-induced seizures at 100 mg/kg, ip measured after 1 hr", "assay_type": "functional, organism-based", "set-up": "dose 100 mg/kg"}, "[25]": {"test_system": "Mus musculus", "experiment": "Neurotoxicity in 32 mA current-induced seizure albino CF1 mouse model at 100 mg/kg, ip measured after 4 hrs", "assay_type": "toxicity, organism-based", "set-up": "dose 100 mg/kg, route intraperitoneal", "settings": "in vivo"}, "[26]": {"test_system": "Rattus norvegicus", "experiment": "Anticonvulsant activity in ip dosed Sprague-Dawley rat assessed as protection against maximal electroshock-induced seizures measured as time to peak effect", "assay_type": "functional"}, "[27]": {"test_system": "Mus musculus", "experiment": "Anticonvulsant activity in albino CF1 mouse assessed as protection against iv infusion metrazol-induced seizures measured as twitch at 79 mg/kg, ip (reference value: 28.2 mg/kg)", "assay_type": "functional"}, "[28]": {"test_system": "Mus musculus", "experiment": "Anticonvulsant activity in albino CF1 mouse assessed as protection against iv infusion metrazol-induced seizures measured as weight at 79 mg/kg, ip (reference value: 26.75 grams)", "assay_type": "functional"}, "[29]": {"test_system": "Rattus norvegicus", "experiment": "Neurotoxicity in MES Sprague-Dawley rat model at 30 mg/kg, ip measured after 0.5 hr", "assay_type": "toxicity, organism-based", "set-up": "dose 30 mg/kg, route intraperitoneal", "settings": "in vivo"}}, "note": "Activity calls are given as the source filed them. The calls are words filed in the database; no cut-off is given here.", "data": [{"smiles": "O=C1NC(=O)[C@@H]2CCCN2[C@H]1c1cccc(OC(F)(F)F)c1", "values": [{"measurement": "Activity", "setting": "[1]", "result": "Active"}, {"measurement": "Activity", "setting": "[2]", "result": "Non-toxic"}, {"measurement": "ED50", "setting": "[3]", "result": 171, "unit": "µmol/kg"}, {"measurement": "Activity", "setting": "[4]", "result": "Active"}, {"measurement": "Activity", "setting": "[5]", "result": "Non-toxic"}, {"measurement": "Activity", "setting": "[6]", "result": "Non-toxic"}, {"measurement": "Activity", "setting": "[7]", "result": "Non-toxic"}, {"measurement": "Activity", "setting": "[8]", "result": "inactive"}, {"measurement": "ED50", "setting": "[9]", "result": 76, "unit": "µmol/kg"}, {"measurement": "Activity", "setting": "[10]", "result": 41.7, "unit": "mg/kg"}, {"measurement": "Activity", "setting": "[11]", "result": "Active"}, {"measurement": "Activity", "setting": "[12]", "result": "inactive"}, {"measurement": "ED50", "setting": "[13]", "result": 200, "unit": "µmol/kg"}, {"measurement": "selectivity ratio", "setting": "[14]", "result": 3.2}, {"measurement": "Activity", "setting": "[15]", "result": 35.2, "unit": "mg/kg"}, {"measurement": "Time", "setting": "[16]", "result": 0.25, "unit": "h"}, {"measurement": "Activity", "setting": "[17]", "result": "inactive"}, {"measurement": "Activity", "setting": "[18]", "result": "Active"}, {"measurement": "ED50", "setting": "[19]", "result": 176, "unit": "µmol/kg"}, {"measurement": "Time", "setting": "[20]", "result": 0.25, "unit": "h"}, {"measurement": "Activity", "setting": "[21]", "result": "Active"}, {"measurement": "Activity", "setting": "[22]", "result": "Toxic"}, {"measurement": "Activity", "setting": "[23]", "result": 97.2, "unit": "mg/kg"}, {"measurement": "Activity", "setting": "[24]", "result": "Active"}, {"measurement": "Activity", "setting": "[25]", "result": "Non-toxic"}, {"measurement": "Time", "setting": "[26]", "result": 0.25, "unit": "h"}, {"measurement": "Activity", "setting": "[27]", "result": 64.8, "unit": "mg/kg"}, {"measurement": "Activity", "setting": "[28]", "result": 27.6, "unit": "g"}, {"measurement": "Activity", "setting": "[29]", "result": "Non-toxic"}]}]}
